Results taken from patent US12570675B2, “Boronic acid compounds” (LG CHEM, LTD., priority 2020, dated 2026).

Target: Proteasome chymotrypsin-like activity (S26 protein from RPMI8226 cells) (Homo sapiens, UniProt P28074)
Assay type: biochemical
Details: S26 protein from RPMI8226 cell extract 2 ug/well, substrate 20 uM, 37° C., 90 minutes; read-out: Proteasome chymotrypsin-like activity inhibition IC50
Experimental: The abilities to inhibit the proteasome activity of the compounds described in the Examples of the present invention and boronic acid drugs were evaluated as follows.
RPMI8226 cells, which is a multiple myeloma cell line, were cultured and then separated by a centrifuge, and washed twice with phosphate buffered saline (PBS). 20 mM of a tris-HCl (pH 8.0) buffer solution was added to the washed cells, and the cells were disrupted by a homogenizer and centrifuged to obtain S26 protein from the supernatant. Suc-Leu-Leu-Val-Tyr-AMC, for a fluorogenic substrate for the chymotrypsin-like activity of the proteasome, and Z-Leu-Leu-Glu-AMC, for a fluorogenic substrate for the caspase-like activity, were purchased from Calbiochem, EMD Millipore and used. Into each well of a 96-well plate (opaque, black round bottom), 20 ul of the S26 protein (final RPMI8226 cell extract concentration: 2 ug/well), 10 ul of S26 proteasome inhibitor serially diluted from 10 uM (final DMSO concentration: 0.5%), and 20 ul of the fluorogenic substrate for the proteasome chymotrypsin-like or caspase-like activity (final concentration: 20 uM) were added and mixed and allowed to react in a 37° C. incubator for 90 minutes. The fluorescence of the fluorogenic substrate was measured by FlexStation II Fluorometer (Molecular Devices). The fluorescence inhibited by the compound diluted at each concentration was measured as the relative percentage value for the amount obtained from the treatment only with the S26 protein and the fluorogenic substrate. IC50 (inhibitory concentration 50) was expressed in terms of a concentration that inhibits 50% of the maximum fluorescence induced by the fluorogenic substrate.

Chain of Proteasome chymotrypsin-like activity (S26 protein from RPMI8226 cells) (P28074 60-263 limits assumed): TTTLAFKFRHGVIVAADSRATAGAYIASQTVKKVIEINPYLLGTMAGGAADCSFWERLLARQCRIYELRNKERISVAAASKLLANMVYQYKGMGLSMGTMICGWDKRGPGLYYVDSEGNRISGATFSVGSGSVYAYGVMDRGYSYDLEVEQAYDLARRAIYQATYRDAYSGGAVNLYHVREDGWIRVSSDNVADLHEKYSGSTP

Row | IC50 | Compound
1 | < 100 nM | CC(C)C[C@H](NC(=O)C1(C(C)C)CC(CNC(=O)c2cc(Cl)ccc2Cl)=NO1)B(O)O (stereo partly drawn) [Example 89, ((1R)-1-(3-((2,5-dichlorobenzamido)methyl)-5-isopropyl-4,5-dihydroisoxazol-5-carboxamido)-3-methylbutyl)boronic acid]
2 | < 25 nM | CC(C)C[C@H](NC(=O)C1(CC(C)C)CC(CNC(=O)c2cc(Cl)ccc2Cl)=NO1)B(O)O (stereo partly drawn) [Example 90, ((1R)-1-(3-((2,5-dichlorobenzamido)methyl)-5-isobutyl-4,5-dihydroisoxazol-5-carboxamido)-3-methylbutyl)boronic acid]
3 | < 25 nM | CC(C)C[C@H](NC(=O)C1(CC(C)C)CC(CNC(=O)c2nccc3ccccc23)=NO1)B(O)O (stereo partly drawn) [Example 91, ((1R)-1-(5-isobutyl-3-((isoquinolin-1-carboxamido)methyl)-4,5-dihydroisoxazol-5-carboxamido)-3-methylbutyl)boronic acid]
4 | < 10 nM | CC(C)C[C@H](NC(=O)C1(Cc2ccccc2)CC(CNC(=O)c2cc3ccccc3s2)=NO1)B(O)O (stereo partly drawn) [Example 93, ((1R)-1-(3-((benzo[b]thiophen-2-carboxamido)methyl)-5-benzyl-4,5-dihydroisoxazol-5-carboxamido)-3-methylbutyl)boronic acid]
5 | < 10 nM | CC(C)C[C@H](NC(=O)C1(Cc2ccccc2)CC(CNC(=O)c2ccc(-c3ccccc3)cc2)=NO1)B(O)O (stereo partly drawn) [Example 94, ((1R)-1-(3-([1,1′-biphenyl]-4-carboxamidomethyl)-5-benzyl-4,5-dihydroisoxazol-5-carboxamido)-3-methylbutyl)boronic acid]
6 | < 10 nM | CC(C)C[C@H](NC(=O)C1(Cc2ccccc2)CC(CNC(=O)c2cccc(-c3ccccc3)c2)=NO1)B(O)O (stereo partly drawn) [Example 95, ((1R)-1-(3-([1,1′-biphenyl]-3-carboxamidomethyl)-5-benzyl-4,5-dihydroisoxazol-5-carboxamido)-3-methylbutyl)boronic acid]
7 | < 10 nM | CC(C)C[C@H](NC(=O)C1(Cc2ccccc2)CC(CNC(=O)c2cccc(-c3ccccc3)n2)=NO1)B(O)O (stereo partly drawn) [Example 96, ((1R)-1-(5-benzyl-3-((6-phenylpicolinamido)methyl)-4,5-dihydroisoxazol-5-carboxamido)-3-methylbutyl)boronic acid]
8 | < 10 nM | CC(C)C[C@H](NC(=O)C1(Cc2ccccc2)CC(CNC(=O)c2ccccc2-c2ccccc2)=NO1)B(O)O (stereo partly drawn) [Example 97, ((1R)-1-(3-([1,1′-biphenyl]-2-carboxamidomethyl)-5-benzyl-4,5-dihydroisoxazol-5-carboxamido)-3-methylbutyl)boronic acid]
9 | < 10 nM | CC(C)C[C@H](NC(=O)C1(Cc2ccccc2)CC(CNC(=O)c2cccc(-c3ccccn3)c2)=NO1)B(O)O (stereo partly drawn) [Example 98, ((1R)-1-(5-benzyl-3-((3-(pyridin-2-yl)benzamido)methyl)-4,5-dihydroisoxazol-5-carboxamido)-3-methylbutyl)boronic acid]
10 | < 25 nM | CC(C)C[C@H](NC(=O)C1(Cc2ccccc2)CC(CN(C)C(=O)c2nccc3ccccc23)=NO1)B(O)O (stereo partly drawn) [Example 99, ((1R)-1-(5-benzyl-3-((N-methylisoquinolin-1-carboxamido)methyl)-4,5-dihydroisoxazol-5-carboxamido)-3-methylbutyl)boronic acid]
11 | < 10 nM | CC(C)C[C@H](NC(=O)C1(Cc2ccc(Cl)cc2)CC(CNC(=O)c2nccc3ccccc23)=NO1)B(O)O (stereo partly drawn) [Example 101, ((1R)-1-(5-(4-chlorobenzyl)-3-((isoquinolin-1-carboxamido)methyl)-4,5-dihydroisoxazol-5-carboxamido)-3-methylbutyl)boronic acid]
12 | < 10 nM | CC(C)C[C@H](NC(=O)C1(Cc2ccccc2Cl)CC(CNC(=O)c2nccc3ccccc23)=NO1)B(O)O (stereo partly drawn) [Example 102, ((1R)-1-(5-(2-chlorobenzyl)-3-((isoquinolin-1-carboxamido)methyl)-4,5-dihydroisoxazol-5-carboxamido)-3-methylbutyl)boronic acid]
